Key:
[1] = target: Botulinum toxin type A endopeptidase (BoNT/A-LC) (Clostridium botulinum, UniProt P0DPI0); assay type: biochemical
[2] = target: Botulinum toxin type B endopeptidase (BoNT/B-LC) (Clostridium botulinum, UniProt P10844); assay type: biochemical
[3] = tested on: Botulinum toxin type A (BoNT/A); design: species or system Balb/c mice; conditions: mouse, in vivo
[4] = tested on: Botulinum toxin type B (BoNT/B); design: species or system Balb/c mice; conditions: mouse, in vivo
[5] = tested on: N2a cells; conditions: cited from earlier work

Chain of Botulinum toxin type A endopeptidase (BoNT/A-LC) (P0DPI0 2-448 limits assumed): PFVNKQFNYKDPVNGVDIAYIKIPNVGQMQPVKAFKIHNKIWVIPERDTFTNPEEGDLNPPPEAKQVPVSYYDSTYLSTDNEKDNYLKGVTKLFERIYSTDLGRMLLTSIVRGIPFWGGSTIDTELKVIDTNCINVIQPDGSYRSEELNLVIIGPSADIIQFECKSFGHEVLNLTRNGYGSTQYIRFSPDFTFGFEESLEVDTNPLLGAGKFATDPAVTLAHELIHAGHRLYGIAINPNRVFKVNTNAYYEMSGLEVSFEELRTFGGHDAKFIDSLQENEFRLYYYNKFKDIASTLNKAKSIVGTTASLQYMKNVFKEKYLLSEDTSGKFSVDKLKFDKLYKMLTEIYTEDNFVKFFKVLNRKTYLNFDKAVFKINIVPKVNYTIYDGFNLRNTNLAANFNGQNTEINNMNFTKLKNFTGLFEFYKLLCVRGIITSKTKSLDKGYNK
Chain of Botulinum toxin type B endopeptidase (BoNT/B-LC) (P10844 2-441 limits assumed): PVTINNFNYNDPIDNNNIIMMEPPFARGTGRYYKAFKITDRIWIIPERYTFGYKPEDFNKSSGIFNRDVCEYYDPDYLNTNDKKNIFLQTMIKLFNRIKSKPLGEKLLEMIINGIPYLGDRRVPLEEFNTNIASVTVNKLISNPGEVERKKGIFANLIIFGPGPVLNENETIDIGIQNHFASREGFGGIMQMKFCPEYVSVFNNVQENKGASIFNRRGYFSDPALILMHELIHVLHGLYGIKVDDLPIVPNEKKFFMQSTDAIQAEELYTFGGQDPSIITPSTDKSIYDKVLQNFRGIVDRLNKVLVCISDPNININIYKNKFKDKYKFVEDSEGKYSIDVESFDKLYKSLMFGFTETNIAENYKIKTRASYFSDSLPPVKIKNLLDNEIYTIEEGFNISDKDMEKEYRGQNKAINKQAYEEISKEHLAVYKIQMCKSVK

Compound	Inhibition rate % [1] [%]	Inhibition rate % [2] [%]	Survival rate % [3] [%]	Survival rate % [4] [%]	neutralization of toxicity of botulinum toxin type A to N2a cells [5]
COc1ccc(Cl)cc1NC(=O)COc1ncccc1C(=O)O [Compound 6a, 2-(2-((5-chloro-2-methoxyphenyl)amino)-2-oxoethoxy)nicotinic acid]	0	80	60	20	
CCOc1ccc(C(Nc2cccnc2)c2cc(Cl)c3cccnc3c2O)cc1 (centres unmarked) [CB7969312]					effectively neutralizes the toxicity
COc1ccc(Cl)cc1NC(=O)CS(=O)(=O)c1cc(C(=O)O)ccn1 [Compound 2a, 2-((2-((5-chloro-2-methoxyphenyl)amino)-2-oxoethyl)sulfonyl)isonicotinic acid]	10	0	0	0	
COc1ccc(Cl)cc1NC(=O)C[S+]([O-])c1ncccc1C(=O)O (centres unmarked) [Compound 2c, 2-((2-((5-chloro-2-methoxyphenyl)amino)-2-oxoethyl)sulfinyl)nicotinic acid]	60.0	35	100	20	
O=C(CS(=O)(=O)c1ncccc1C(=O)O)Nc1cc(Cl)ccc1Oc1ccccc1 [Compound 2b, 2-((2-((5-chloro-2-phenoxyphenyl)amino)-2-oxoethyl)sulfonyl)nicotinic acid]	5	0	0	0	

Reference: patent publication US10981873B2 (priority 2016, dated 2021)
